≈ marks a conversion by molar mass, not a printed value. Where two headings read alike, the source gives them in different places.
Experiments:
[1] = test system: Methicillin Resistant Staphylococcus aureus strain USA 300 (NRS384); experiment: MIC, broth micro-dilution technique (CLSI); assay type: cell-based; details: Staphylococcus aureus, 22 h, read-out: MIC (μg/mL) S. aureus
How it was run: (§1)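 CLSI broth microdilution in cation-adjusted Mueller Hinton broth with 0.002% v/v Tween-80. Compounds were serially 2-fold diluted over 10 concentrations from 64 μg/ml, or from 4 μg/mL in a modified protocol; inoculum at final OD600 0.0005, incubated 35° C for 22 hours.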

[2] = test system: Escherichia coli MC4100 harboring the IMP4213; experiment: MIC, broth micro-dilution technique (CLSI); assay type: cell-based; details: Escherichia coli, 22 h, 35° C., 22 hours
How it was run: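 Susceptibility is tested by broth micro-dilution per CLSI, using ten serial 2-fold dilutions beginning at 64 μg/ml or, in a modified version, 4 μg/mL. The E. coli MC4100 strain carries an imp allele raising outer-membrane permeability.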

[3] = test system: MRSA COL (NRS100); experiment: MIC, broth micro-dilution technique (CLSI); assay type: cell-based, Staphylococcus aureus; details: Staphylococcus aureus, 22 h, read-out: MIC (μg/mL) (COL)
How it was run: as §1

[4] = test system: MRSA strain COL; experiment: Neutropenic thigh infection model, intravenous infusion; assay type: in vivo, CD-1 mice; details: Compound 115 (Css 2 or 6.4 ug/mL) co-dosed with imipenem (Css 0.3 μg/mL), infused 23 hours; 24 hours post infection; compared with either single agent; FIG. 3
Experimental: Jugular vein cannulated CD-1 mice were subjected to induced neutropenia (<100 cells/mm^3) by injecting 150 mg/kg and 100 mg/kg cyclophosphamide at day −5 and day −2 respectively. At day −1, saline was infused at […] for 12 hours using Harvard Apparatus PHD 2000 Infusion pumps. At day 0, mice were infected in the thigh muscle with MRSA strain COL 4×10^5 CFU/50 μL. Four test groups and one vehicle group began dosing at 1 hour post infection:
Group 1 was the vehicle control (3% HP-beta-cyclodextrin in PBS)
Group 2 was the imipenem (Imp) group dosed at a concentration of 0.21 mg/mL solution, infused at 80 μL/hour for 23 hours, with a target steady-state concentration (Css) of 0.3 μg/mL.
Group 3 was the SpsB inhibitor Compound 115 group dosed at a concentration of 2.14 mg/mL solution, infused at 80 μL/hour for 23 hours to achieve a steady state concentration (Css) of 6.4 ug/mL.
Group 4 was the SpsB inhibitor Compound 115 group dosed at 0.67 mg/mL solution (Css 2 ug/mL) co-dosed with imipenem at a concentration of 0.21 mg/mL (Css of 0.3 μg/mL) infused at 80 μL/hour for 23 hours. […]
At 24 hours post infection, bacterial burden in the thigh muscle was determined by plating the tissue homogenate in series dilutions on blood agar plates. […]

[5] = read-out: MIC (μg/mL) E. coli, Table 1 protocol: serial 2-fold dilutions starting from 64 μg/ml
[6] = read-out: MIC (μg/mL) E. coli, Table 2 modified protocol: serial 2-fold dilutions starting from 4 μg/mL
[7] = Table 1 protocol: serial 2-fold dilutions starting from 64 μg/ml, 35° C., 22 hours
[8] = Table 2 modified protocol: serial 2-fold dilutions starting from 4 μg/mL, 35° C., 22 hours

SMILES	MIC [1]	MIC [2, 5]	MIC [3]	MIC [2, 6]	also measured
CCCCCCCCCCNCCC(=O)N[C@@H](CCCCN)C(=O)N(C)[C@@H]1C(=O)N[C@@H](C)C(=O)N[C@H](C(=O)N[C@@H](C)C(C)=O)Cc2ccc(O)c(c2)-c2cc1ccc2OCCN [Compound 115]	0.63 µg/mL (≈ 0.728 µM)	19 µg/mL (≈ 22 µM)	0.13 µg/mL (≈ 0.15 µM)		bacterial burden in the thigh muscle [4]: greater reduction in bacterial burden
CC(=O)[C@H](C)NC(=O)[C@@H]1Cc2ccc(OCCO)c(c2)-c2cc(ccc2OCCN)[C@H](N(C)C(=O)[C@H](CCCCN)NC(=O)c2ccc(-c3ccc(Cl)cc3)cc2)C(=O)N[C@@H](C)C(=O)N1 [Compound 330]	3 µg/mL (≈ 3.29 µM)		1 µg/mL (≈ 1.1 µM)	> 4 µg/mL	
CC(=O)[C@H](C)NC(=O)[C@@H]1Cc2ccc(O)c(c2)-c2cc(ccc2OCCn2ccnc2)[C@H](N(C)C(=O)[C@H](CCCCN)NC(=O)c2ccc(-c3ccc(Cl)cc3)cc2)C(=O)N[C@@H](C)C(=O)N1 [Compound 331]		8 µg/mL (≈ 8.7 µM)			MIC [1, 7]: 16 µg/mL (≈ 17.4 µM); MIC [3, 7]: 2 µg/mL (≈ 2.18 µM)
CC(=O)[C@H](C)NC(=O)[C@@H]1Cc2ccc(O)c(c2)-c2cc(ccc2OCCN2CCN(C)CC2)[C@H](N(C)C(=O)[C@H](CCCCN)NC(=O)c2ccc(-c3ccc(Cl)cc3)cc2)C(=O)N[C@@H](C)C(=O)N1 [Compound 332]		64 µg/mL (≈ 67.3 µM)			MIC [1, 7]: 64 µg/mL (≈ 67.3 µM); MIC [3, 7]: 8 µg/mL (≈ 8.41 µM)
C[C@@H]1NC(=O)[C@@H](N(C)C(=O)[C@H](CCCCN)NC(=O)c2ccc(-c3ccc(Cl)cc3)cc2)c2ccc(O)c(c2)-c2cc(ccc2O)C[C@@H](C(=O)N[C@@H](C)C(=O)N(C)c2cc[nH]n2)NC1=O [Compound 333]		32 µg/mL (≈ 35.3 µM)			MIC [1, 7]: 64 µg/mL (≈ 70.6 µM); MIC [3, 7]: 16 µg/mL (≈ 17.7 µM)
CCCCc1ccc(-c2ccc(C(=O)N[C@@H](CCCN)C(=O)N(C)[C@@H]3C(=O)N[C@@H](C)C(=O)N[C@H](C(=O)NCC(=O)O)Cc4ccc(OCCN)c(c4)-c4cc3ccc4OCCN)cc2)cc1 [Compound 334]				0.13 µg/mL (≈ 0.143 µM)	MIC [1, 8]: 1 µg/mL (≈ 1.1 µM); MIC [3, 8]: 0.38 µg/mL (≈ 0.419 µM)
CCCCc1ccc(-c2ccc(C(=O)N[C@@H](CCCN)C(=O)N(C)[C@@H]3C(=O)N[C@@H](C)C(=O)N[C@H](C(N)=O)Cc4ccc(OCCN)c(c4)-c4cc3ccc4OCCN)cc2)cc1 [Compound 335]	0.19 µg/mL (≈ 0.224 µM)		0.063 µg/mL (≈ 0.0742 µM)	0.13 µg/mL (≈ 0.153 µM)	
CCCCc1ccc(-c2ccc(C(=O)N[C@@H](CCCN)C(=O)N(C)[C@@H]3C(=O)N[C@@H](C)C(=O)N[C@H](CO)Cc4ccc(OCCN)c(c4)-c4cc3ccc4OCCN)cc2)cc1 [Compound 336]	0.5 µg/mL (≈ 0.598 µM)		0.13 µg/mL (≈ 0.155 µM)	0.25 µg/mL (≈ 0.299 µM)	
CCCCc1ccc(-c2ccc(C(=O)N[C@@H](CCCN)C(=O)N(C)[C@@H]3C(=O)N[C@@H](C)C(=O)N[C@H](C(=O)NS(C)(=O)=O)Cc4ccc(OCCN)c(c4)-c4cc3ccc4OCCN)cc2)cc1 [Compound 337]	2 µg/mL (≈ 2.16 µM)		0.75 µg/mL (≈ 0.809 µM)	0.047 µg/mL (≈ 0.0507 µM)	
CCCCc1ccc(-c2ccc(C(=O)N[C@@H](CCCN)C(=O)N(C)[C@@H]3C(=O)N[C@@H](C)C(=O)N[C@H](C(=O)NS(=O)(=O)C(F)(F)F)Cc4ccc(OCCN)c(c4)-c4cc3ccc4OCCN)cc2)cc1 [Compound 338]				0.63 µg/mL (≈ 0.642 µM)	MIC [1, 8]: 3 µg/mL (≈ 3.06 µM); MIC [3, 8]: 2.5 µg/mL (≈ 2.55 µM)
CCCCCCCCCCNCCC(=O)N[C@@H](CCCCN)C(=O)N(C)[C@@H]1C(=O)N[C@@H](C)C(=O)N[C@H](C(=O)N[C@@H](C)C(C)=O)Cc2ccc(O)c(c2)-c2cc1ccc2OC1O[C@H](CO)[C@@H](O)[C@H](O)[C@H]1N (stereo partly shown) [Compound 339]	2 µg/mL (≈ 2.03 µM)		1 µg/mL (≈ 1.02 µM)	> 4 µg/mL	
CCCCCCCCCCNCCC(=O)N[C@@H](CCCCN)C(=O)N(C)[C@@H]1C(=O)N[C@@H](C)C(=O)N[C@H](C(=O)N[C@@H](C)C(C)=O)Cc2ccc(OC3O[C@H](CO)[C@@H](O)[C@H](O)[C@H]3N)c(c2)-c2cc1ccc2OC1O[C@H](CO)[C@@H](O)[C@H](O)[C@H]1N (stereo partly shown) [Compound 340]	> 4 µg/mL		2 µg/mL (≈ 1.75 µM)	> 4 µg/mL	
